We go through four compounds from patent US6482921B1, “Uridyl peptide antibiotic (UPA) derivatives, their synthesis and use” (Essential Therapeutics, Inc., priority 1999, dated 2002).

Holding throughout (type): cell-based
In assay [1] the test system is Pseudomonas aeruginosa PAM 1020. The assay can be described thus: MIC broth microdilution, P. aeruginosa PAM 1020 (wild type). The note with it: P. aeruginosa PAM 1020. In general terms: Dilution methods test growth across graded concentrations, often in twofold steps.
The subject of assay [2] is Pseudomonas aeruginosa PAM 1154. The assay can be described thus: MIC broth microdilution, P. aeruginosa PAM 1154 (OprM::Hg). The note with it: P. aeruginosa PAM 1154 OprM::Hg.
The test system of assay [3] is Pseudomonas aeruginosa PAM 1135. Nature of the assay: MIC broth microdilution, P. aeruginosa PAM 1135 (high level UPA resistance). The note with it: P. aeruginosa PAM 1135 UPA1^r.
For assay [4], the system named is Pseudomonas aeruginosa PAM 1323. Nature of the assay: MIC broth microdilution, P. aeruginosa PAM 1323 (medium level UPA resistance).
In another assay the test system is Escherichia Coli MC 4100. The assay can be described thus: MIC broth microdilution, E. coli MC 4100 (wild type). The note with it: E. coli MC 4100.
The subject of assay [5] is Escherichia Coli MC 4100 AcrAB. The assay can be described thus: MIC broth microdilution, E. coli MC 4100 AcrAB (ΔAcrAB). The note with it: E. coli AcrAB.
The test system of assay [6] is Escherichia Coli MC 4100 AcrAB UPA3r. Nature of the assay: MIC broth microdilution, E. coli MC 4100 AcrAB UPA3r (ΔAcrAB, UPA resistant). The note with it: E. coli AcrAB UPA3^r.
Assay [7] has as its system Staphylococcus aureus ATCC 29213. The assay can be described thus: MIC broth microdilution, S. aureus ATCC 29213 (wild type). The note with it: S. aureus ATCC 29213.
In assay [8] the test system is Staphylococcus aureus 8325-4. The assay can be described thus: MIC broth microdilution, S. aureus 8325-4 (wild type). The note with it: S. aureus 8325-4.
Assay [9] deals with Pasteurella multocida pm002. Nature of the assay: MIC broth microdilution, P. multocida pm002 (wild type).

The structures appear in SMILES notation. Values after ≈ are worked out from the molar mass of the structure shown.

Regarding `CSCCC(N)C(=O)N(C)C(C)C(NC(=O)C(CCSC)NC(=O)NC(Cc1c[nH]c2ccccc12)C(=O)O)C(=O)NCC1CC(O)C(n2ccc(=O)[nH]c2=O)O1` [Compound 162, 1-[5′-[(2S,3S)-N^2-[N-[[(1S)-1-Carboxy-2-indol-3-ylethyl]carbamoyl]-L-methionyl]-N^3-L-methionyl-N^3-methyl-2,3-diaminobutyramido]-3′,5′-dideoxy-α-L-arabinofuranosyl]uracil], the “MIC (μg/ml) Broth microdilution” value was determined as 64 µg/mL (≈ 76.7 µM) in assay [1]; 16 µg/mL (≈ 19.2 µM) in [2]; 256 µg/mL (≈ 307 µM) in [3]; 256 µg/mL (≈ 307 µM) in [4]; 512 µg/mL (≈ 614 µM) against Escherichia Coli MC 4100; 16 µg/mL (≈ 19.2 µM) in assay [5]. For the same compound, the “MIC (μg/ml) Broth microdilution” value in assay [6] is 512 µg/mL (≈ 614 µM); in [7], more than 512 µg/mL; in [8], more than 512 µg/mL; in assay [9], 512 µg/mL (≈ 614 µM).

Consider `CC(C(NC(=O)C(Cc1ccccc1)NC(=O)NC(Cc1c[nH]c2ccccc12)C(=O)O)C(=O)NCC1CC(O)C(n2ccc(=O)[nH]c2=O)O1)N(C)C(=O)C(N)Cc1ccc(O)cc1` [Compound 163, 1-[5′-[(2S,3S)-N^2-[N-[[(1S)-1-Carboxy-2-indol-3-ylethyl]carbamoyl]-L-phenylalanyl]-N^3-L-tyrosyl-N^3-methyl-2,3-diaminobutyramido]-3′,5′-dideoxy-α-L-arabinofuranosyl]uracil], for which the “MIC (μg/ml) Broth microdilution” value in assay [1] stood at 16 µg/mL (≈ 18.1 µM); in assay [2], 16 µg/mL (≈ 18.1 µM); in assay [3] it was 256 µg/mL (≈ 290 µM); in assay [4], 256 µg/mL (≈ 290 µM); in the assay on Escherichia Coli MC 4100, 512 µg/mL (≈ 581 µM); in assay [5], 4 µg/mL (≈ 4.54 µM). Moreover, the “MIC (μg/ml) Broth microdilution” value in assay [6] was 512 µg/mL (≈ 581 µM); in [7], more than 512 µg/mL; in [8] it was more than 512 µg/mL; in assay [9] it was 256 µg/mL (≈ 290 µM).

For `CN[C@@H](C)[C@H](NC(=O)[C@H](C)NC(=O)N[C@@H](Cc1c[nH]c2ccccc12)C(=O)O)C(=O)NC[C@H]1C[C@@H](O)[C@H](n2ccc(=O)[nH]c2=O)O1` [Compound 165, 1-[5′-[(2S,3S)-N^2-[N-[[(1S)-1-Carboxy-2-indol-3-ylethyl]carbamoyl]-L-alanyl]-N^3-methyl-2,3-diaminobutyramido]-3′,5′-dideoxy-α-L-arabinofuranosyl]uracil], the “MIC (μg/ml) Broth microdilution” value is more than 512 µg/mL in assay [1]; 128 µg/mL (≈ 199 µM) in assay [2]; more than 512 µg/mL in assay [3]; more than 512 µg/mL in [4]; more than 512 µg/mL against Escherichia Coli MC 4100; 4 µg/mL (≈ 6.22 µM) in assay [5]. Further, the “MIC (μg/ml) Broth microdilution” value in [6] was 128 µg/mL (≈ 199 µM); in assay [7], more than 512 µg/mL; in [8], more than 512 µg/mL; in [9], 256 µg/mL (≈ 398 µM).

As for `CSCCC(NC(=O)NC(Cc1c[nH]c2ccccc12)C(=O)O)C(=O)NC(C(=O)NCC1CC(O)C(n2ccc(=O)[nH]c2=O)O1)C(C)N(C)C(=O)C(C)N` [Compound 167, 1-[5′-[(2S,3S)-N^3-L-Alanyl-N^2-[N-[[(1S)-1-carboxy-2-indol-3-ylethyl]carbamoyl]-L-methionyl]-N^3-methyl-2,3-diaminobutyramido]-3′,5′-dideoxy-α-L-arabinofuranosyl]uracil], the “MIC (μg/ml) Broth microdilution” value in assay [1] is 512 µg/mL (≈ 662 µM); in [2] it was 256 µg/mL (≈ 331 µM); in [3], more than 512 µg/mL; in assay [4], 512 µg/mL (≈ 662 µM); against Escherichia Coli MC 4100 it was 512 µg/mL (≈ 662 µM); in assay [5] it was 4 µg/mL (≈ 5.17 µM). For the same compound, the “MIC (μg/ml) Broth microdilution” value was 128 µg/mL (≈ 165 µM) in [6], more than 512 µg/mL in assay [7], more than 512 µg/mL in [8] and 128 µg/mL (≈ 165 µM) in [9].
